Like-named read-outs stand apart in the source and are kept apart here.
What was measured:
Estrone Sulfatase = molecular target: T1, Estrone Sulfatase (Homo sapiens, UniProt P08842); test: Effects of Inhibitors on Estrone Sulfatase Activity in MCF-7 Cells; type: cell-based
T1 construct: endogenous in cells; host or cells: MCF-7 human breast cancer cells (American Type Culture Collection)
T1 sequence (P08842 22-583): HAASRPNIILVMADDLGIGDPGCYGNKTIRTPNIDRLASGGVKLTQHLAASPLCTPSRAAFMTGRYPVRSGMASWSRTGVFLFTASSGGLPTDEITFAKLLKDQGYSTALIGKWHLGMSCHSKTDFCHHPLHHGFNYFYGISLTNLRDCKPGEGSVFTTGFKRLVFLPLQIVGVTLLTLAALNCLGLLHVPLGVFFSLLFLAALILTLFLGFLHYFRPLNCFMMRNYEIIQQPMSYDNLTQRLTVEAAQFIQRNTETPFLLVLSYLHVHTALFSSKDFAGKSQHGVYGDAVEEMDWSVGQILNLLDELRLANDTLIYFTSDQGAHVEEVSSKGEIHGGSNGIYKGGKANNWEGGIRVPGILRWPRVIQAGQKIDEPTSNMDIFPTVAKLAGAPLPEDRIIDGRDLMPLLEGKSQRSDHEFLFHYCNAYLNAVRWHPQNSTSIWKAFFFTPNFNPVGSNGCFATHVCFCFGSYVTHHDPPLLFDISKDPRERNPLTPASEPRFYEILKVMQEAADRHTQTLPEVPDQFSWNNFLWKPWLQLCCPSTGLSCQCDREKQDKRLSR
Source text: A. Effects of Inhibitors on Estrone Sulfatase Activity in MCF-7 Cells
Reagents: MCF-7 human breast cancer cell line was supplied by the American Type Culture Collection, Rockville, MD. Eagle's minimum essential medium (MEM) and fetal calf serum (FCS) were purchased from Sigma Chemical Company, St. Louis, Mo. [4-^14 C]Estrone, [6,7-^3 H]estradiol and [6,7-^3 H](N)estrone sulfate were obtained from New England Nuclear Research Products, Boston, Mass.
Procedure: The method of Duncan et al., Cancer Res. 53:298-303 (1993) was employed. MCF-7 cells were seeded in 60 mm×15 mm culture dishes at 1×10^5 cells/dish and maintained in 4.0 ml of MEM containing 2 mM glutamine and 5% FCS. The cells were incubated at 37° C. in an atmosphere of 5% CO2 /95% air and 100% humidity, with the medium changed every third day. When the cells reached 80% confluency, the intact monolayers were washed once with Earl's balanced salt solution and incubated in 4.0 ml of serum and phenol re-free MEM containing either the substrate (^3 H-estrone sulfate, 7 pmol, 9×10^5 dpm) and inhibitor dissolved in ethanol, or ethanol alone. The fmal ethanol concentration was always below 1%. The incubation continued under the regular conditions for 24 h. At the end of 24 h, 2.0 ml of medium was transferred into separate tubes containing 7×10^3 dpm of ^14 C-estrone. The mixture was vortexed vigorously for 60 s with 5 ml of toluene. After phase separation, 2.0 ml of the organic phase was transferred into a counting vial for scintillation counting. The amount of estrone sulfate hydrolyzed was calculated on the basis of ^3 H counts obtained, with the added ^14 C-estrone counts used to correct for recovery through the extraction procedure.
The cells remaining in each culture dish were washed once with saline and then scraped with 1.0 ml of 0.5 N NaOH into 10×75 mm tubes. The cell pellets in each tube was incubated at 50° C. for 20 min to ensure that digestion was complete and all proteins had became soluble. An aliquot was then taken for protein determination by Lowry's method (Lowry et al., J. Biol. Chem. 193:265-275 (1951)).
The percentage of inhibition was determined by evaluating the quantity of estrone sulfate hydrolyzed with the inhibitor relative to that without the inhibitor.
As a general practice, all available inhibitors were first tested at 100 μM; the ones showing inhibitory effects at that concentration were tested again at various concentrations to obtain the IC50 values.

uterus = test: Uterotrophic assay (estrogenic activity from uterine weights); type: in vivo, Sprague Dawley rats; design: scale not given here; conditions: female rats, test compound alone once daily for 7 days, s.c. or oral gavage; uterine weight vs vehicle control
Source text: B. Uterotrophic and antiuterotrophic assays
Sprague Dawley rates are obtained from Simmonsen Laboratories, Gilroy, Calif. Estradiol benzoate may be purchased from Sigma Chemical Co., St. Louis, Mo.
The procedure of Wakeling et al., Endocrinology 99:447453 (1983) is followed. Female Sprague Dawley rats weighing 40-50 grams are used for the experiment. In general, animals are quarantined for 3 days after arrival at the experimental site.
Rats are initially weighed and randomly divided into groups with 5 animals in each group. For the uterotrophic assay, animals are dosed once daily with various doses of test compounds in 0.1 or 1.0 ml of sterile saline via subcutaneous injection or oral gavage, respectively. For the antiuterotrophic assay, animals are dosed once daily with the same doses indicated above plus 0.5 μg/rat of estradiol benzoate alone.
The animals are treated for 7 days. On day 8, animals are weighed and then sacrificed. The uterus of each animal is removed immediately after death and weighed; fat materials are trimmed off prior to weighing.
A comparison of uterine weights from the groups receiving test compound alone with those of the vehicle control group gives the estrogenic activity. Antiestrogenic activity is obtained by comparing the uterine weights from the groups receiving test compound plus estradiol with those of the estradiol control group.

[1] = intact MCF-7 human breast cancer cells, 3H-estrone sulfate substrate, 24 h, 37° C., read-out: Estrone Sulfatase Inhibitory Activity IC50

SMILES | IC50 (Estrone Sulfatase) | Estrogenic Activity (uterus) | IC50 (Estrone Sulfatase; [1])
COc1cc2c(cc1OS(N)(=O)=O)CC[C@@H]1[C@@H]2CC[C@]2(C)C(=O)CC[C@@H]12 [Compound 67, 2-Methoxyestra-1,3,5(10)-trien-17-one-3-O-sulfamate] | 0.016 nM | 0 | 
CCOC(=O)/C=C1/CC[C@H]2[C@@H]3CCc4cc(OS(N)(=O)=O)ccc4[C@H]3CC[C@]12C [Compound 32, Ethyl 3-Sulfamoyloxy-[17(20)Z]-19-norpregna-1,3,5(10),17(20)-tetraen-21-oate] |  | 0 | 2.7 nM
CN(C)c1c(OS(N)(=O)=O)ccc2c1CC[C@@H]1[C@@H]2CC[C@]2(C)C(=O)CC[C@@H]12 [Compound 88, 4-Dimethylaminoestra-1,3,5(10)-trien-17-one-3-O-sulfamate] |  | 0 | 515 nM
CCC[C@H]1CC[C@H]2[C@@H]3CCc4cc(OS(N)(=O)=O)ccc4[C@H]3CC[C@]12C [Compound 21, 17β-Propylestra-1,3,5(10)-triene-3-O-sulfamate] |  | 0 | 0.034 nM
CC(=O)Nc1c(OS(N)(=O)=O)ccc2c1CC[C@@H]1[C@@H]2CC[C@]2(C)C(=O)CC[C@@H]12 [Compound 96, 4-Acetoamideestra-1,3,5(10)-trien-17-one-3-O-sulfamate] |  | 0 | 290 nM
C[C@]12CC[C@@H]3c4ccc(OS(N)(=O)=O)c([N+](=O)[O-])c4CC[C@H]3[C@@H]1CCC2=O [Compound 77, 4-Nitroestra-1,3,5(10)-trien-17-one-3-O-sulfamate] |  | 0 | < 10 nM
CC/C=C1\CC[C@H]2[C@@H]3CCc4cc(OS(N)(=O)=O)ccc4[C@H]3CC[C@]12C [Compound 28, [17(20)E]-Propylideneestra-1,3,5(10)-triene-3-O-sulfamate] |  | 0.20 | 0.027 nM
C/C=C1/CC[C@H]2[C@@H]3CCc4cc(OS(N)(=O)=O)c(OC)cc4[C@H]3CC[C@]12C [Compound 69, 2-Methoxy-[17(20)Z]-19-norpregna-1,3,5(10),17(20)-tetraene-3-O-sulfamate] |  | 0 | 2.5 nM
CC(=O)[C@H]1CC[C@H]2[C@@H]3CCc4cc(OS(N)(=O)=O)ccc4[C@H]3CC[C@]12C [Compound 10, 19-Norpregna-1,3,5(10)trien-20-one-3-O-sulfamate] |  | 0 | 2 nM
CC[C@H]1CC[C@H]2[C@@H]3CCc4cc(OS(N)(=O)=O)ccc4[C@H]3CC[C@]12C [Compound 19, 19-Norpregna-1,3,5(10)-triene-3-O-sulfamate] |  | 0.54 | 0.02 nM
C/C=C1/CC[C@H]2[C@@H]3CCc4cc(OS(N)(=O)=O)ccc4[C@H]3CC[C@]12C [Compound 13, [17(20)Z]-19-Norpregna-1,3,5(10),17(20)-tetraene-3-O-sulfamate] |  | 0.05 | 0.08 nM
CN(C)CCO[C@@H]1CC[C@H]2[C@@H]3CCc4cc(OS(N)(=O)=O)ccc4[C@H]3CC[C@]12C [Compound 55, 17α-(2'-N,N-Dimethylaminoethoxy)estra-1,3,5(10)-triene-3-O-sulfamate] |  | 0 | 26 nM
C#CC1=CC[C@H]2[C@@H]3CCc4cc(OS(N)(=O)=O)ccc4[C@H]3CC[C@]12C [Compound 5, 19-Norpregna-1,3,5(10),16-tetraen-20-yne-3-O-sulfamate] |  | 0.40 | 0.25 nM
CC12CC(=O)C3=Cc4ccc(OS(N)(=O)=O)cc4CCC3C1CCC2=O (stereo not drawn) [Compound 99, β-Homo-9-(10-19)-abeoestra-1,3,5(10),9(19)-tetraen-11,17-dione-3-O-sulfamate] |  | 0 | 26 nM
CC(=O)C1=CC[C@H]2[C@@H]3CCc4cc(OS(N)(=O)=O)ccc4[C@H]3CC[C@]12C [Compound 7, 19-Norpregna-1,3,5(10),16-tetraen-20-one-3-O-sulfamate] |  | 0.66 | 0.021 nM
CC/C=C1/CC[C@H]2[C@@H]3CCc4cc(OS(N)(=O)=O)ccc4[C@H]3CC[C@]12C [Compound 15, [17(20)Z]-Propylideneestra-1,3,5(10)-triene-3-O-sulfamate] |  | 0.30 | 0.038 nM
CN(C)Cc1cc2c(cc1OS(N)(=O)=O)CC[C@@H]1[C@@H]2CC[C@]2(C)C(=O)CC[C@@H]12 [Compound 73, 2-Dimethylaminomethylestra-1,3,5(10)-trien-17-one-3-O-sulfamate] |  | 0 | > 1000 nM
CN(C)c1cc2c(cc1OS(N)(=O)=O)CC[C@@H]1[C@@H]2CC[C@]2(C)C(=O)CC[C@@H]12 [Compound 83, 2-Dimethylaminoestra-1,3,5(10)-trien-17-one-3-O-sulfamate] |  | 0 | 270 nM
CN(C)CCOC/C=C1\CC[C@H]2[C@@H]3CCc4cc(OS(N)(=O)=O)ccc4[C@H]3CC[C@]12C [Compound 39, 21-(2'-N,N-Dimethylaminoethoxy)-[17(20)E]-19-norpregna-1,3,5(10),17(20)-tetraene-3-O-sulfamate] |  | 0 | 34 nM
CC(=O)O[C@H]1CC[C@H]2[C@@H]3CCc4cc(OS(N)(=O)=O)c(C#N)cc4[C@H]3CC[C@]12C [Compound 59, 2-Cyanoestra-1,3,5(10)-trien-17β-ol-3-O-sulfamate 17β-O-acetate] |  | 0 | 0.3 nM
CC[C@H]1CC[C@H]2[C@@H]3CCc4cc(OS(N)(=O)=O)c(OC)cc4[C@H]3CC[C@]12C [Compound 71, 2-Methoxy-19-norpregna-1,3,5(10)-triene-3-O-sulfamate] |  | 0 | 1.5 nM
CCOC(=O)/C=C1\CC[C@H]2[C@@H]3CCc4cc(OS(N)(=O)=O)ccc4[C@H]3CC[C@]12C [Compound 34, Ethyl 3-Sulfamoyloxy-[17(20)E]-19-norpregna-1,3,5(10),17(20)-tetraen-21-oate] |  | 0 | 0.27 nM
CN(C)CCO[C@H]1CC[C@H]2[C@@H]3CCc4cc(OS(N)(=O)=O)ccc4[C@H]3CC[C@]12C [Compound 44, 17β-(2'-N,N-Dimethylaminoethoxy)estra-1,3,5(10)-triene-3-O-sulfamate] |  | 0 | 24 nM
COCc1cc2c(cc1OS(N)(=O)=O)CC[C@@H]1[C@@H]2CC[C@]2(C)C(=O)CC[C@@H]12 [Compound 75, 2-Methoxymethylestra-1,3,5(10)-trien-17-one-3-O-sulfamate] |  | 0 | 2 nM
COC(=O)c1cc2c(cc1OS(N)(=O)=O)CC[C@@H]1[C@@H]2CC[C@]2(C)C(=O)CC[C@@H]12 [Compound 65, 2-Methoxycarbonylestra-1,3,5(10)-trien-17-one-3-O-sulfamate] |  | 0 | 

— patent US6046186A, “Estrone sulfamate inhibitors of estrone sulfatase, and associated pharmaceutical compositions and methods of use” (SRI International, priority 1997, dated 2000)
